The source made the active and inactive calls. The rule behind the calls is not given here.
Experiments:
[1] = system: Human immunodeficiency virus 1; experiment: Potentiation of 5-Aza-dC-induced antiviral activity against VSV-G pseudotyped HIV-1 NL4-3 infected in human U373-MAGI cells assessed as Pol mutation at 50 uM incubated for 4 hrs preinfection followed by 5-Aza-C addition for 2 hrs preinfection and subsequent viral infection measured at 72 hrs post infection by illumina sequencing method (reference value: 18.5%); format: functional
U373-MAGI [2] = experiment: Reduction in dGTP level in human U373-MAGI cells at 200 uM after 6 hrs by LC-MS/MS analysis; format: functional, cell-based
[3] = system: Human immunodeficiency virus 1; experiment: Potentiation of 5-Aza-dC-induced antiviral activity against VSV-G pseudotyped HIV-1 NL4-3 infected in human U373-MAGI cells assessed as Gag mutation at 50 uM incubated for 4 hrs preinfection followed by 5-Aza-C addition for 2 hrs preinfection and subsequent viral infection measured at 72 hrs post infection by illumina sequencing method (reference value: 18.4%); format: functional
[4] = system: Human immunodeficiency virus 1; experiment: Potentiation of 5-Aza-dC-induced antiviral activity against VSV-G pseudotyped HIV-1 NL4-3 infected in human U373-MAGI cells assessed as increase in frequency of G to C transversion at 50 uM incubated for 4 hrs preinfection followed by 5-Aza-C addition for 2 hrs preinfection and subsequent viral infection measured at 72 hrs post infection by illumina sequencing method relative to control; format: functional, organism-based
[5] = Reduction in dATP level in human U373-MAGI cells at 50 uM after 6 hrs by LC-MS/MS analysis; format: functional; design: scale not given: the % may be the effect or the level left
[6] = system: Human immunodeficiency virus 1; experiment: Potentiation of 5-Aza-C-induced antiviral activity against VSV-G pseudotyped HIV-1 NL4-3 infected in human U373-MAGI cells assessed as reduction in viral infectivity at 50 uM preincubated for 2 to 8 hrs followed by 5-Aza-C addition for 2 hrs and subsequent viral infection measured at 72 hrs post infection by flow cytometric analysis; format: functional, organism-based
[7] = system: Human immunodeficiency virus 1; experiment: Potentiation of 5-Aza-C-induced antiviral activity against VSV-G pseudotyped HIV-1 NL4-3 infected in human U373-MAGI cells assessed as reduction in gag level at 50 uM after 2 to 72 hrs by qPCR method; format: functional, organism-based
[8] = system: Human immunodeficiency virus 1; experiment: Potentiation of 5-Aza-C-induced antiviral activity against VSV-G pseudotyped HIV-1 NL4-3 infected in human U373-MAGI cells assessed as reduction in viral infectivity at 25 to 100 uM preincubated for 2 hrs followed by 5-Aza-C addition for 2 hrs and subsequent viral infection measured at 72 hrs post infection by flow cytometric analysis; format: functional, organism-based
[9] = system: Human immunodeficiency virus 1; experiment: Potentiation of 5-Aza-C-induced antiviral activity against VSV-G pseudotyped HIV-1 NL4-3 infected in human U373-MAGI cells assessed as reduction in U5-gag level at 50 uM after 2 to 72 hrs by qPCR method; format: functional, organism-based
U373-MAGI [10] = experiment: Reduction in dCTP level in human U373-MAGI cells at 200 uM after 6 hrs by LC-MS/MS analysis; format: functional, cell-based
[11] = system: Human immunodeficiency virus 1; experiment: Potentiation of 5-Aza-dC-induced antiviral activity against VSV-G pseudotyped HIV-1 NL4-3 infected in human U373-MAGI cells assessed as reduction in gag level at 50 uM after 2 to 72 hrs by qPCR method; format: functional, organism-based
[12] = system: Human immunodeficiency virus 1; experiment: Antiviral activity against VSV-G pseudotyped HIV-1 NL4-3 infected in human U373-MAGI cells assessed as increase in frequency of G to C transversion at 50 uM incubated for 4 hrs prior to infection measured at 72 hrs post infection by illumina sequencing method relative to control; format: functional
U373-MAGI [13] = experiment: Reduction in dTTP level in human U373-MAGI cells at 50 uM after 6 hrs by LC-MS/MS analysis; format: functional, cell-based
[14] = system: Human immunodeficiency virus 1; experiment: Antiviral activity against VSV-G pseudotyped HIV-1 NL4-3 infected in human U373-MAGI cells assessed as Nef mutation at 50 uM incubated for 4 hrs prior to infection measured at 72 hrs post infection by illumina sequencing method (reference value: 22.6%); format: functional
[15] = system: Human immunodeficiency virus 1; experiment: Antiviral activity against VSV-G pseudotyped HIV-1 NL4-3 infected in human U373-MAGI cells assessed as increase in mutation frequency at 50 uM incubated for 4 hrs prior to infection measured at 72 hrs post infection by illumina sequencing method; format: functional
U373-MAGI [16] = experiment: Increase in 5-aza-dCTP/dCTP ratio in human U373-MAGI cells at 50 uM preincubated for 2 hrs followed by 5-aza-C addition measured after 4 hrs by LC-MS/MS analysis relative to 5-aza-C; format: functional, cell-based
[17] = system: Human immunodeficiency virus 1; experiment: Potentiation of 5-Aza-dC-induced antiviral activity against VSV-G pseudotyped HIV-1 NL4-3 infected in human U373-MAGI cells assessed as Nef mutation at 50 uM incubated for 4 hrs preinfection followed by 5-Aza-C addition for 2 hrs preinfection and subsequent viral infection measured at 72 hrs post infection by illumina sequencing method (reference value: 22.6%); format: functional
[18] = system: Human immunodeficiency virus 1; experiment: Antiviral activity against VSV-G pseudotyped HIV-1 NL4-3 infected in human U373-MAGI cells assessed as reduction in viral infectivity preincubated for 2 to 8 hrs followed by viral infection measured at 72 hrs post infection by flow cytometric analysis; format: functional, organism-based
U373-MAGI [19] = experiment: Reduction in dCTP level in human U373-MAGI cells at 50 uM preincubated for 2 hrs followed by 5-aza-C addition measured after 4 hrs by LC-MS/MS analysis; format: functional, cell-based
[20] = system: Human immunodeficiency virus 1; experiment: Potentiation of 5-Aza-dC-induced antiviral activity against VSV-G pseudotyped HIV-1 NL4-3 infected in human U373-MAGI cells assessed as Vif mutation at 50 uM incubated for 4 hrs preinfection followed by 5-Aza-C addition for 2 hrs preinfection and subsequent viral infection measured at 72 hrs post infection by illumina sequencing method (reference value: 19.2%); format: functional
[21] = system: Human immunodeficiency virus 1; experiment: Potentiation of 5-Aza-C-induced antiviral activity against VSV-G pseudotyped HIV-1 NL4-3 infected in human U373-MAGI cells assessed as Env mutation at 50 uM incubated for 4 hrs preinfection followed by 5-Aza-C addition for 2 hrs preinfection and subsequent viral infection measured at 72 hrs post infection by illumina sequencing method (reference value: 21.4%); format: functional
[22] = system: Human immunodeficiency virus 1; experiment: Antiviral activity against VSV-G pseudotyped HIV-1 NL4-3 infected in human U373-MAGI cells assessed as Env mutation at 50 uM incubated for 4 hrs prior to infection measured at 72 hrs post infection by illumina sequencing method (reference value: 21.4%); format: functional
[23] = system: Human immunodeficiency virus 1; experiment: Antiviral activity against VSV-G pseudotyped HIV-1 NL4-3 infected in human U373-MAGI cells assessed as Pol mutation at 50 uM incubated for 4 hrs prior to infection measured at 72 hrs post infection by illumina sequencing method (reference value: 18.5%); format: functional
[24] = system: Human immunodeficiency virus 1; experiment: Potentiation of 5-Aza-dC-induced antiviral activity against VSV-G pseudotyped HIV-1 NL4-3 infected in human U373-MAGI cells assessed as reduction in viral infectivity at 25 uM preincubated for 2 hrs followed by 5-Aza-dC addition for 2 hrs and subsequent viral infection measured at 72 hrs post infection by flow cytometric analysis; format: functional, organism-based
[25] = system: Human immunodeficiency virus 1; experiment: Antiviral activity against VSV-G pseudotyped HIV-1 NL4-3 infected in human U373-MAGI cells assessed as increase in frequency of T to A transversion at 50 uM incubated for 4 hrs prior to infection measured at 72 hrs post infection by illumina sequencing method relative to control; format: functional

Oc1ccc(/C=C/c2cc(O)cc(O)c2)cc1 [RESVERATROL]
Activity [1]: 18.9%
Activity (U373-MAGI [2]): Active
Activity [3]: 15.7%
Activity [4]: inactive
Activity [5]: 30%
Activity [6]: Active
Activity [7]: Active
Activity [8]: Active
Activity [9]: Active
Activity (U373-MAGI [10]): Active
Activity [11]: Active
fold change (FC) [12]: 2
Activity (U373-MAGI [13]): inactive
Activity [14]: 18.5%
fold change (FC) [15]: 1.5
Activity (U373-MAGI [16]): Active
Activity [17]: 20.3%
Activity [18]: Active
Activity (U373-MAGI [19]): Active
Activity [20]: 25.1%
Activity [21]: 22.8%
Activity [22]: 22.5%
Activity [23]: 19%
Activity [24]: Active
fold change (FC) [25]: 1.8

Reference: ChEMBL document CHEMBL3797079, “Synergistic reduction of HIV-1 infectivity by 5-azacytidine and inhibitors of ribonucleotide reductase” (Bioorg Med Chem, 2016)
